Columns and labels:
RXR α = biological target: T1, RXR α (Homo sapiens, UniProt P19793); assay: RXR α binding, Ki from IC50 by Cheng-Prussof equation using tritiated LGD1069; conditions: determined from IC50 values by the Cheng-Prussof equation using tritiated LGD1069; read-out: Bind RXR α Ki
T1 sequence (P19793 1-462): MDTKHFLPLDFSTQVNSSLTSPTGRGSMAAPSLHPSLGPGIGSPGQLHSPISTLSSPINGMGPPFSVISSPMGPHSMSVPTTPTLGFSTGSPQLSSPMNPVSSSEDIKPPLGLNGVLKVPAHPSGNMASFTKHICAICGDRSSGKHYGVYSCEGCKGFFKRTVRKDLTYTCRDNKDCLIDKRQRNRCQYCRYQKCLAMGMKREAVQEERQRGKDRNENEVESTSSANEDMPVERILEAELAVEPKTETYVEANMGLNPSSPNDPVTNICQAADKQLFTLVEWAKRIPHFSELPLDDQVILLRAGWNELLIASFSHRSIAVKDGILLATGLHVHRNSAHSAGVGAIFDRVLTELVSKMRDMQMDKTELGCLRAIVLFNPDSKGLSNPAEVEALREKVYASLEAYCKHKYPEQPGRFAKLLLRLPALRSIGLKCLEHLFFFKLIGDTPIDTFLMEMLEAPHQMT

RXR:PPARγ = biological target: T2, RXR:PPARγ (Homo sapiens, UniProt P19793); assay: RXR:PPARγ synergy with BRL49653 in CV-1 cells; format: cell-based; conditions: maximal response in presence of 100 nM BRL49653 (RXR:PPARγ) relative to maximal response of BRL49653 alone
T2 construct: host or cells: CV-1
T2 sequence (P19793 1-462): T1 sequence (P19793 1-462)
T2 sequence (P37231 1-505 partner): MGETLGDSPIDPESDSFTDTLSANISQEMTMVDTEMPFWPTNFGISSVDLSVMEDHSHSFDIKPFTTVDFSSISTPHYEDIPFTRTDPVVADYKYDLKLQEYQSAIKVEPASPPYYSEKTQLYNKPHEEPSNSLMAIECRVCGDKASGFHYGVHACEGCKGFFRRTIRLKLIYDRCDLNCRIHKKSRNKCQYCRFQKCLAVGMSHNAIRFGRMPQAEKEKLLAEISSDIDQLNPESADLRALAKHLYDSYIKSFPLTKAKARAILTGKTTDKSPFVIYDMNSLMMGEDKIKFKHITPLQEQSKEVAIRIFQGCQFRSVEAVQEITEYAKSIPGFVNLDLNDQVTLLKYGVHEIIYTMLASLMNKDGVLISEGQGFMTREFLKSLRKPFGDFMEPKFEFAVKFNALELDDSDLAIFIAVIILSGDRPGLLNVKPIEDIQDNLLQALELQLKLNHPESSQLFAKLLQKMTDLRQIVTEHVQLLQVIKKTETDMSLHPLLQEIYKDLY

[1] = tested on: transgenic mice carrying the human apo A-I gene; assay: Mice transgenic for the human apolipoprotein A-I gene: HDL cholesterol and triglycerides; format: in vivo; conditions: transgenic mouse model; Table 1
From the text: Mice transgenic for the human apolipoprotein A-I gene (obtained from Jackson Laboratory) were used to evaluate PPARα mediated effects on high density lipoprotein (HDL) cholesterol. The mice were handled as described above for db/db mice, except that they were fed Purina 5001.
When administered to transgenic mice carrying the human apo A-I gene, compounds of the invention are expected to increase HDL cholesterol. […] This effect is consistent with activation of PPARα and, in fact, in vivo these compounds synergize with the weak PPARα agonist fenofibrate.

RXR:RAR = biological target: T3, RXR:RAR (Homo sapiens, UniProt P19793); assay: RXR:RAR agonist efficacy in CV-1 cells; format: cell-based; conditions: for RXR:RAR CV-1 (%) Ag.: maximal response relative to maximal response of ATRA; for activation of RXR:RAR heterodimers: statement on Table 1
T3 construct: host or cells: CV-1
T3 sequence (P19793 1-462): T1 sequence (P19793 1-462)
T3 sequence (P10276 1-462 partner): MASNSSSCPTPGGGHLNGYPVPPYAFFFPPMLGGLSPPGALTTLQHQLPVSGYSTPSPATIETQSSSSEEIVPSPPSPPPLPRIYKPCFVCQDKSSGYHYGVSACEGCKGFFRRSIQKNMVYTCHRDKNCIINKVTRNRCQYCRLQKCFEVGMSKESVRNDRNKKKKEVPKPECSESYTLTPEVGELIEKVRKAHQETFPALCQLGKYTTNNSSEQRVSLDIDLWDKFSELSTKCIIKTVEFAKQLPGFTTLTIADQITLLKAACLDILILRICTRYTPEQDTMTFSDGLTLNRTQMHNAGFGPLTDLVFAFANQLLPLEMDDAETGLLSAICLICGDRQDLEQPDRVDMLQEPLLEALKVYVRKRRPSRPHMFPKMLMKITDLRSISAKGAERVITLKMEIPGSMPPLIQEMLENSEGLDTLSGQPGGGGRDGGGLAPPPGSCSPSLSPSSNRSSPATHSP

db/db mouse = db/db mouse plasma glucose and triglycerides, oral gavage; format: in vivo; conditions: for db/db mouse Glu. (D 7): plasma glucose as a % correction relative to lean values on day 7 of treatment with 30 mg/kg/day; for db/db mouse Trigs. (D 3): plasma triglycerides as a % of control values on day 3 of treatment with 30 mg/kg/day
RXR:RXR = biological target: T4, RXR:RXR (Homo sapiens, UniProt P19793); assay: RXR:RXR agonist/antagonist efficacy in CV-1 cells; format: cell-based; conditions: for RXR:RXR CV-1 (%) Antag: maximal repression (100%) in the presence of 32 nM LGD1069; for RXR:RXR CV-1 (%) Ag: maximal response relative to maximal response of ATRA
T4 construct: host or cells: CV-1
T4 sequence (P19793 1-462): T1 sequence (P19793 1-462)

rodent models of NIDDM = assay: Rodent models of NIDDM, effects of full RXR homodimer agonists
Procedure: All animal experiments were conducted in a United States Department of Agriculture registered facility in accordance with NIH guidelines for the care and use of laboratory animals. Mice (obtained from Jackson Laboratory), ZDF rats (obtained from Genetic Models Inc.) and fa/fa rats (obtained from either Charles River, or Harlan) were maintained on 12-hour light/dark cycle. Mice (age 28-42 days) were caged in groups of 5-6. Rats (age 7 weeks) were housed individually. […] Compounds were administered at the specified doses by oral gavage on the morning of each day of any experiment. Blood samples were obtained 3 hours after dosing from fed animals under anesthesia and collected into heparinized capillary tubes from the tail vein.

Compound	Ki (RXR α) [nM]	PPARγ CV-1 (%) Synergy (RXR:PPARγ) [%]	triglycerides [1]	RXR:RAR CV-1 (%) Ag. (RXR:RAR) [%]	activation of RXR:RAR heterodimers (RXR:RAR)	db/db mouse Glu. (D 7) (db/db mouse) [%]	db/db mouse Trigs. (D 3) (db/db mouse) [%]	RXR:RXR CV-1 (%) Antag (RXR:RXR) [%]	RXR:RXR CV-1 (%) Ag (RXR:RXR) [%]	melting point [°C]	further results
CCOc1c(-c2cccc3cc(/C(C)=C/C(=O)O)oc23)cc(C(C)C)cc1C(C)C [Ex. 5, 3-[7-(2-Ethoxy-3,5-diisopropylphenyl)-benzo[b]furan-2-yl]-but-2-enoic acid]	22	140	do not raise triglycerides	3	do not activate RXR:RAR heterodimers	17	104	10	33	–	–
C/C(=C\C(=O)O)c1cc2c(-c3cc(C(C)(C)C)cc(C(C)(C)C)c3OCC(F)F)cccc2s1 [Ex. 14, 3-{4-[2-(2,2-Difluoroethoxy)-3,5-di-tert-butylphenyl]-benzo[b]thien-2-yl}-but-2-enoic acid]	12	67	do not raise triglycerides	2	do not activate RXR:RAR heterodimers	35	139	79	1	–	–
CCCOc1c(-c2cccc3sc(/C(C)=C/C(=O)O)cc23)cc(C(C)C)cc1C(C)C [Ex. 15]	14	109	do not raise triglycerides	6	do not activate RXR:RAR heterodimers	20	98	81	4	–	–
CCCCOc1c(-c2c(F)ccc3sc(/C(C)=C/C(=O)O)cc23)cc(C(C)C)cc1C(C)C [Ex. 18, (E)-3-[4-(2-n-Butoxy-3,5-di-iso-propylphenyl)-5-fluorobenzo[b]thien-2-yl]-but-2-enoic acid]	54	40	do not raise triglycerides	4	do not activate RXR:RAR heterodimers	38	105	86	1	–	–
CCCCOc1c(-c2nccc3ccc(/C(C)=C/C(=O)O)cc23)cc(C(C)C)cc1C(C)C [Example 53, 3-[1-(2-Butoxy-3,5-diisopropyl-phenyl)-isoquinolin-7-yl]-but-2(E)-enoic acid]	–	–	–	–	–	–	–	–	–	149.8	–
CCCCOc1c(-c2ccnc3ccc(/C(C)=C/C(=O)O)cc23)cc(C(C)C)cc1C(C)C [Example 54, 3-[4-(2-Butoxy-3,5-diisopropyl-phenyl)quinolin-6-yl]-but-2(E)-enoic acid]	–	–	–	–	–	–	–	–	–	195.3	–
CCCOc1c(-c2c[nH]c3ccc(/C(C)=C/C(=O)O)cc23)cc(C(C)(C)C)cc1C(C)(C)C [Example 63, 3-[3-(3,5-Di-tert-butyl-2-propoxy-phenyl)-1H-indol-5-yl]-but-2-enoic acid]	–	–	–	–	–	–	–	–	–	105 to 115	–
C/C(=C\C(=O)O)c1ccc2[nH]cc(-c3cc(C(C)(C)C)cc(C(C)(C)C)c3OCC(F)F)c2c1 [Example 64, 3-{3-[3,5-Di-tert-butyl-2-(2,2-difluro-ethoxy)-phenyl]-1H-indol-5-yl}-but-2-enoic acid]	–	–	–	–	–	–	–	–	–	135 to 145	–
C/C(=C\C(=O)O)c1ccc2[nH]cc(-c3cc(C(C)(C)C)cc(C(C)(C)C)c3OCC(F)(F)F)c2c1 [Example 65, 3-{3-[3,5-Di-tert-butyl-2-(2,2,2-trifluoro-ethoxy)-phenyl]-1H-indol-5-yl}-but-2-enoic acid]	–	–	–	–	–	–	–	–	–	146 to 153	–
Cc1cc2c(cc1C1(c3ccc(C(=O)O)cn3)CC1)C(C)(C)CCC2(C)C [LG100268]	–	–	raises triglycerides	–	–	73	195	–	–	–	blood glucose levels (rodent models of NIDDM): lower blood glucose levels; thyroid hormone axis (rodent models of NIDDM): suppress the thyroid hormone axis; triglycerides (rodent models of NIDDM): raise triglycerides
CN(C)C(=N)N=C(N)N [metformin, reference compound]	–	–	–	–	–	–	–	–	–	–	plasma glucose (db/db mouse; 7 week old db/db mice, 300 mg/kg by daily oral gavage, maximum effect after first week, efficacy decreases over 3 subsequent weeks): lowers plasma glucose

— patent publication US7348359B2, “Retinoid X receptor modulators” (Eli Lilly and Company, priority 2001, dated 2008)
